Drawing on US20170305922A1, “CARM1 INHIBITORS AND USES THEREOF” (Epizyme, Inc., priority 2014, published 2017), this text covers IC50 for 41 molecules.

For test [1], the system named is asymmetric di-methyl PABP1 in RKO cells. Kind of test: RKO methylation assay: In Cell Western (ICW) for asymmetric di-methyl PABP1 (PABP1me2a). Conditions: Homo sapiens, RKO, 48 h, Cellular-based (PABP1me2a) ICW (In Cell Western) assay. The method, boiled down:
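In-cell western on compound-exposed RKO cells (48 hours): asymmetric di-methyl PABP1 detected by antibody at 800 nm, DNA content by DRAQ5 at 700 nm. Percent inhibition from signal ratios against DMSO (minimum) and 20 μM reference compound (maximum) wells; IC50 curves fitted from triplicates.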

In another test the target is T1, Human CARM1 (PRMT4) (Homo sapiens, UniProt Q86X55).
T1 construct: Flag-CARM1-His was eluted with 200 ug/ml FLAG peptide in buffer A; made in house; host or cells: HEK 293F cells infected with recombinant baculovirus (pFastBacMam)
T1 sequence (Q86X55 1-585 isoform Q86X55-1): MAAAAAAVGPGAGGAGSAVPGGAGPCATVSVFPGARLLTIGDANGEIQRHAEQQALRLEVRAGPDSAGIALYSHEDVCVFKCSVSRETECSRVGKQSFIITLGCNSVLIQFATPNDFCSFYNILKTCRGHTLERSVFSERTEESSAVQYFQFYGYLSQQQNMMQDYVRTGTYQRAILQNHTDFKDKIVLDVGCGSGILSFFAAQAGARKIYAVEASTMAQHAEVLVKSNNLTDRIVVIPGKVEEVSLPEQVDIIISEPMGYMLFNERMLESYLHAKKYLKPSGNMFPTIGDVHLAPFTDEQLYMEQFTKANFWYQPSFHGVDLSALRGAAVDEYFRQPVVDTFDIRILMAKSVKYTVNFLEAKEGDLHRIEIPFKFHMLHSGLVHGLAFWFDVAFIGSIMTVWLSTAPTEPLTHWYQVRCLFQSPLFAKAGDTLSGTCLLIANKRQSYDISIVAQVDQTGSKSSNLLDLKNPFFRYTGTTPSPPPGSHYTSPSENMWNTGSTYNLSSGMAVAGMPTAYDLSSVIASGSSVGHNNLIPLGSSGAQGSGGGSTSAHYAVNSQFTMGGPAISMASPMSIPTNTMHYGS
Kind of test: CARM1 enzyme assay on peptide substrates (3H-SAM Flashplate). As to conditions: Biochemical assay; CARM1 0.25 nM, 3H-SAM 30 nM, peptide 250 nM; read-out: Biochem IC50.

Structures are written as SMILES.

For `CCn1ncc(C)c1-c1nc(-c2cc(OC[C@H](O)CNC)ccc2Cl)nc(N2CC3(CCN(C(=O)OC)CC3)C2)c1C` [Example 87], the IC50 in test [1] is 205 nM; at Human CARM1 (PRMT4), 9 nM.
For `CCn1ncc(C)c1-c1nc(-c2cc(OC[C@H](O)CNC)ccc2Cl)nc(N2Cc3cncnc3C2)c1C` [Example 88] the same measures were 222 nM and 4.6 nM.
For `CCn1ncc(C)c1-c1nc(-c2cc(OC[C@H](O)CNC)ccc2Cl)nc(N2Cc3cccnc3C2)c1C` [Example 89] the same measures were 165 nM and 3.7 nM.
The like results for `CNC[C@@H](O)COc1ccc(Cl)c(-c2nc(-c3c(C)noc3C)c(C)c(N3Cc4nc(OC)nc(OC)c4C3)n2)c1` [Example 90] were, in that order, 32 nM and 2.2 nM.
As to `CNC[C@@H](O)COc1ccc(Cl)c(-c2nc(-c3c(C)noc3C)c(C)c(N3CC4(CC(C(=O)N(C)C)C4)C3)n2)c1` [Example 91], the IC50 in test [1] amounted to 92 nM; on Human CARM1 (PRMT4), 5.5 nM.
The like results for `CNC[C@@H](O)COc1ccc(Cl)c(-c2nc(-c3c(C)noc3C)c(C)c(N3CC4(CCC(C#N)CC4)C3)n2)c1` [Example 92] were, in that order, 64 nM and 5.2 nM.
Turning to `CNC[C@@H](O)COc1ccc(Cl)c(-c2nc(-c3c(C)noc3C)c(C)c(N3Cc4ncnc(OC)c4C3)n2)c1` [Example 93], the results for the IC50 (in test [1]; at Human CARM1 (PRMT4)) were 33 nM and 2.3 nM, respectively.
The like results for `CNC[C@@H](O)COc1ccc(Cl)c(-c2nc(-c3c(C)noc3C)c(C)c(N3Cc4ncnc(OCCOC)c4C3)n2)c1` [Example 94] were, in that order, 44 nM and 2.3 nM.
The like results for `CNC[C@@H](O)COc1ccc(Cl)c(-c2nc(/C=C(\OC)C3CCN(C(=O)OC)CC3)c(C)c(-c3c(C)noc3C)n2)c1` [Example 95] were, in that order, 995 nM and 11.2 nM.
The like results for `CNC[C@@H](O)COc1ccc(Cl)c(-c2nc(-c3c(C)noc3C)c(C)c(N3CC4(C3)CN(C3CC3)C4)n2)c1` [Example 96] were, in that order, 54 nM and 2.1 nM.
`CNC[C@@H](O)COc1ccc(Cl)c(-c2nc(-c3c(C)noc3C)c(C)c(N3CC4(CCC(S(C)(=O)=O)CC4)C3)n2)c1` [Example 97]: the results for the IC50 (in test [1]; on Human CARM1 (PRMT4)) were 394 nM and 10.9 nM, respectively.
Take `CNC[C@@H](O)COc1ccc(Cl)c(-c2nc(-c3c(C)noc3C)c(C)c(N3CC4(CCN4C(=O)OC)C3)n2)c1` [Example 98]: the IC50 turned out to be 99 nM in test [1] and 8.4 nM on Human CARM1 (PRMT4).
Consider `CNC[C@@H](O)COc1ccc(Cl)c(-c2nc(-c3c(C)noc3C)c(C)c(N3CC4(CN(CC(F)(F)F)C4)C3)n2)c1` [Example 99], for which the IC50 in test [1] came to 39 nM; at Human CARM1 (PRMT4), 11 nM.
The like results for `CNC[C@@H](O)COc1ccc(Cl)c(-c2nc(-c3c(C)noc3C)c(C)c(N3CC4(CCN4CC(F)(F)F)C3)n2)c1` [Example 100] were, in that order, 68 nM and 11.3 nM.
For `CCc1cc2c(c(C)n1)CN(c1nc(-c3cc(OC[C@H](O)CNC)ccc3Cl)nc(-c3c(C)noc3C)c1C)C2` [Example 101] the same measures were 38 nM and 4.4 nM.
For `CNC[C@@H](O)COc1ccc(Cl)c(-c2nc(-c3c(C)noc3C)c(C)c(N3Cc4cc(C)nc(C)c4C3)n2)c1` [Example 102] the same measures were 27 nM and 4.5 nM.
Consider `CNC[C@@H](O)COc1ccc(Cl)c(-c2nc(-c3cnn(C4CC4)c3)c(C)c(-c3c(C)noc3C)n2)c1` [Example 103], for which the IC50 is 130 nM in test [1] and 8.1 nM on Human CARM1 (PRMT4).
Turning to `CNC[C@@H](O)COc1ccc(Cl)c(-c2nc(-c3c(C)noc3C)c(C)c(N3C[C@@H]4C[C@H]3CN4C(=O)OC)n2)c1` [Example 104], the values for the IC50 (in test [1]; at Human CARM1 (PRMT4)) were 368 nM and 10.8 nM, respectively.
For `CNC[C@@H](O)COc1ccc(Cl)c(-c2nc(-c3c(C)noc3C)c(C)c(N3Cc4cnc(N5CCC5)nc4C3)n2)c1` [Example 105] the same measures were 11 nM and 3.2 nM.
The like results for `CNC[C@@H](O)COc1ccc(Cl)c(-c2nc(-c3c(C)noc3C)c(C)c(N3Cc4cnc(OCCOC)nc4C3)n2)c1` [Example 106] were, in that order, 25 nM and 5.5 nM.
For `CNC[C@@H](O)COc1ccc(Cl)c(-c2nc(CCC3CCN(C(=O)OC)CC3)c(C)c(-c3c(C)noc3C)n2)c1` [Example 107] the same measures were 176 nM and 11.2 nM.
Turning to `CNC[C@@H](O)COc1ccc(Cl)c(-c2nc(-c3c(C)noc3C)c(C)c(N3CC4(CCN4CC(F)F)C3)n2)c1` [Example 108], the IC50 in test [1] was 164 nM; at Human CARM1 (PRMT4) it was 18.3 nM.
For `CNC[C@@H](O)COc1ccc(Cl)c(-c2nc(-c3c(C)noc3C)c(C)c(N3Cc4cnn(CC(=O)N(C)C)c4C3)n2)c1` [Example 109] the same measures were 2840 nM and 6.4 nM.
The like results for `CNC[C@@H](O)COc1ccc(Cl)c(-c2nc(-c3c(C)noc3C)c(C)c(N3Cc4cnn(CCOC)c4C3)n2)c1` [Example 110] were, in that order, 52 nM and 4.8 nM.
For `CNC[C@@H](O)COc1ccc(Cl)c(-c2nc(-c3c(C)noc3C)c(C)c(N3CC4(CC(S(C)(=O)=O)C4)C3)n2)c1` [Example 111] the same measures were 822 nM and 11.2 nM.
Take `CNC[C@@H](O)COc1ccc(Cl)c(-c2nc(-c3c(C)noc3C)c(C)c(N3Cc4cn(CCOC)nc4C3)n2)c1` [Example 112]: the results for the IC50 (in test [1]; on Human CARM1 (PRMT4)) were 66 nM and 7.2 nM, respectively.
With `CNC[C@@H](O)COc1ccc(Cl)c(-c2nc(-c3c(C)noc3C)c(C)c(N3Cc4cn(CC(=O)N(C)C)nc4C3)n2)c1` [Example 113], the results for the IC50 (in test [1]; at Human CARM1 (PRMT4)) were 1150 nM and 8.8 nM, respectively.
The like results for `CNC[C@@H](O)COc1ccc(Cl)c(-c2nc(-c3c(C)noc3C)c(C)c(N3Cc4cn(C(CO)CO)nc4C3)n2)c1` [Example 114] were, in that order, 5850 nM and 7.8 nM.
For `CNC[C@@H](O)COc1ccc(Cl)c(-c2nc(-c3c(C)noc3C)c(C)c(N3Cc4cnn(C(CO)CO)c4C3)n2)c1` [Example 115] the same measures were 9130 nM and 9.9 nM.
For `CNC[C@@H](O)COc1ccc(Cl)c(-c2nc(-c3c(C)noc3C)c(C)c(N3CC4(CCN(CC(F)(F)F)C(=O)O4)C3)n2)c1` [Example 116], the IC50 came out at 339 nM in test [1] and 13.8 nM on Human CARM1 (PRMT4).
The like results for `CNC[C@@H](O)COc1ccc(Cl)c(-c2nc(-c3c(C)noc3C)c(C)c(N3Cc4cnc(SC)nc4C3)n2)c1` [Example 117] were, in that order, 31 nM and 3.9 nM.
Turning to `CNC[C@@H](O)COc1ccc(Cl)c(-c2nc(-c3cnn(CC(F)(F)F)c3)c(C)c(-c3c(C)noc3C)n2)c1` [Example 118], the IC50 was found to be 428 nM in test [1] and 9 nM on Human CARM1 (PRMT4).
The like results for `CNC[C@@H](O)COc1ccc(Cl)c(-c2nc(-c3cnn(CC(F)F)c3)c(C)c(-c3c(C)noc3C)n2)c1` [Example 119] were, in that order, 340 nM and 7.6 nM.
The like results for `CNC[C@@H](O)COc1ccc(Cl)c(-c2nc(-c3c(C)noc3C)c(C)c(N3C[C@@H]4C[C@H]3CN4CC(F)(F)F)n2)c1` [Example 120] were, in that order, 389 nM and 8.8 nM.
For `CNC[C@@H](O)COc1ccc(Cl)c(-c2nc(CCC3CN(C(=O)OC)C3)c(C)c(-c3c(C)noc3C)n2)c1` [Example 121] the same measures were 257 nM and 13.4 nM.
On to `CNC[C@@H](O)COc1ccc(Cl)c(-c2nc(-c3c(C)noc3C)c(C)c(-n3ncc4c3CN(C(=O)OC)C4)n2)c1` [Example 122], for which the IC50 in test [1] came out at 1810 nM; on Human CARM1 (PRMT4) it was 13.7 nM.
As to `CNC[C@@H](O)COc1ccc(Cl)c(-c2nc(-c3c(C)noc3C)c(C)c(N3Cc4cccnc4C3C)n2)c1` (stereo partly shown) [Example 123], the IC50 in test [1] was 163 nM; at Human CARM1 (PRMT4) it was 3.4 nM.
Take `CNC[C@@H](O)COc1ccc(Cl)c(-c2nc(-c3c(C)noc3C)c(C)c(N3Cc4ccncc4C3C)n2)c1` (stereo partly shown) [Example 124]: the figures for the IC50 (in test [1]; at Human CARM1 (PRMT4)) were 175 nM and 5.2 nM, respectively.
On to `CNC[C@@H](O)COc1ccc(Cl)c(-c2nc(-c3c(C)noc3C)c(C)c(N3Cc4cnn(C5COC5)c4C3)n2)c1` [Example 125], for which the IC50 in test [1] is 150 nM; at Human CARM1 (PRMT4), 6.5 nM.
For `CNC[C@@H](O)COc1ccc(Cl)c(-c2nc(-c3c(C)noc3C)c(C)c(N3Cc4cn(C5COC5)nc4C3)n2)c1` [Example 126] the same measures were 157 nM and 6.2 nM.
The like results for `CNC[C@@H](O)COc1ccc(Cl)c(-c2nc(-c3c(C)noc3C)c(C)c(N3Cc4cnc(OCC(F)F)nc4C3)n2)c1` [Example 127] were, in that order, 32 nM and 7.8 nM.
